{"source": "patent US20060165769A1", "about": "“Pharmaceutical formulations containing vitamin E TPGS molecules that solubilize lipophilic drugs without significant efflux inhibition, and use of such formulations” (priority 2004, published 2006)", "system": "Caco-2 monolayers (efflux transport of Rhodamine 123)", "assay": "Inhibition Protocol: Rhodamine 123 transport across Caco-2 monolayers in the presence of TPGS analog", "assay_type": "cell-based", "conditions": "relative to Rhodamine 123 alone, TPGS analog 33 μmolar", "description": "As used herein, the term “Inhibition Protocol” or “inhibition protocol” refers to the following test. The test is carried out using Caco-2 (C2BBe1 or HTB-37) monolayers which are known to be a good in vitro model for gastrointestinal epithelial cells. The following describes the inhibition protocol: Caco-2 cells, clone C2BBe1, from passages 48-92 are used. Cells are grown to ˜90% confluent in 75 cm^2 T-flasks with Dulbecco's modified Eagle's medium (DMEM) supplemented with 10% fetal bovine serum (FBS) and 1% non-essential amino-acids. Cells are grown at a temperature of ˜37° C. in an atmosphere of ˜85% relative humidity and ˜5% CO2. Cells are seeded on top of Transwell® inserts (pore size 0.4 μm, 1.13 cm^2) at a density of ˜60,000 cells/cm^2. […]\nRhodamine 123 (RHO) transport is assessed in absorptive (apical to basolateral, Ap→BI) and secretory (BI→Ap) directions. […]\nMonolayers are agitated using an orbital shaker at ˜100±20 rpm. […] To ensure integrity of the monolayers, TEER values were measured on the day of the experiment and at the end of the experiment.\nApparent permeability (Papp) was calculated according to: Papp=(dQ/dt)*(1/A)*(1/Co)\nwhere A (cm^2) is the nominal surface area of the monolayer and C0 (μg/mL) is the RHO concentration in the donor compartment at t=0. Relative change of Papp(cm/s)was calculated according to the equation: rel. increase/decrease=|(1−Papp(TPGS)/Papp(RHO))*100|. […]"}
{"substance": "d-α-tocopheryl polyethylene glycol succinate [TPGS 1000]", "values": [{"measurement": "% Decrease, B to A", "value": 73.6, "unit": "%"}, {"measurement": "% Increase, A to B", "value": 82.5, "unit": "%"}]}
